We go through two compounds from EP4241766A1, “USE OF OLFACTORY RECEPTOR OR13A1 LIGANDS IN THE TREATMENT OF LYMPHOMAS” (Fondazione Per L'Istituto Oncologico Di Ricerca (IOR), priority 2022, dated 2023).

In one test the test system is U2932 DLBCL cell line. The experiment in a line: Growth/viability of U2932 cells with doxycycline-inducible shRNA system targeting OR13A1. It counts as cell-based. The source says: • Figure 1. Expression of OR13A1 across lymphoma cell lines as measured by RNA-Seq. A) Heatmap is based on log2 CPM (counts per million). Scale ranges from low (white) to high expression (black). Each horizontal represents the value for one cell line. GCB DLBCL, diffuse large B-cell lymphoma of the germinal center B-cell-type; ABC DLBCL, diffuse large B-cell lymphoma of the activated B-cell-like; MCL, mantle cell lymphoma; MZL, marginal zone lymphoma; CLL, chronic lymphocytic leukemia; PMBCL, primary mediastinal large B-cell lymphoma; BL, Burkitt lymphoma. B) OR13A1 expression level by cell of origin in DLBCL cell lines, the expression was higher in cells derived from germinal center (GC) B-cell type (GCB) than activated B cell like (ABC) DLBCL (P value = 0.03). • Figure 2. OR13A1 silencing is associated with reduction in cell viability of DLBCL cells. Left panel, real-time PCR showing reduction of OR13A1 72h after siRNA treatment. Right panel, Reduction of cell viability, measured with MTT, in DLBCL cells after gene silencing. • Figure 3. Homology model of OR13A1 with two ligands. A) cyclohexanone docked onto the orthosteric binding site. B) tyramine docked onto the orthosteric binding site. Residues identified in the model to interact with the tyramine, potentially relevant for the receptor activation, are shown in sticks, D221 and T297. • Figure 4. […] Experiments were done using U2932 cells with the doxycycline-inducible shRNA system, exposed or not to cyclohexanone (25µM). The red arrow indicates the addition of cyclohexanone. CH, cyclohexanone; sh1, doxycycline-inducible shRNA targeting OR13A1; shCNT, scramble doxycycline-inducible shRNA.
Cellular experiments followed with cyclohexanone and, among the predicted ligands, tyramine using the U2932 DLBCL cell line with the doxycycline-inducible shRNA system.

In another test the target is T1, Olfr211 (Mus musculus, UniProt Q8VGH2).
T1 sequence (Q8VGH2 1-309): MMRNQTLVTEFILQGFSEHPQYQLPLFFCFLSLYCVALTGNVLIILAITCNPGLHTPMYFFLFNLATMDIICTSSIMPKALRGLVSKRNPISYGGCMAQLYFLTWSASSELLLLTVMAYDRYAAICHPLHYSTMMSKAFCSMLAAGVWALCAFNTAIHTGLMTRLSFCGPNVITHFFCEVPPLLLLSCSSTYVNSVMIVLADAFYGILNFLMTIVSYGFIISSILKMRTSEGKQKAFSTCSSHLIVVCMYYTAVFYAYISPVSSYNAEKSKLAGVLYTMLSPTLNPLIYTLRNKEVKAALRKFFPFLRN
The following applies: experimentally demonstrated, reference [52]; cited from earlier work.

Another test concerns Olfr1484. To be noted: experimentally demonstrated, reference [52]; cited from earlier work.

`NCCc1ccc(O)cc1` [tyramine]: the “lymphoma cell line growth” value in the test on U2932 DLBCL cell line (U2932 DLBCL cell line, doxycycline-inducible shRNA system) is recorded as “increased lymphoma cell line growth”.

For `O=C1CCCCC1` [cyclohexanone], the lymphoma cell viability result in the test on U2932 DLBCL cell line (U2932, in the presence of the GPCR (OR13A1), Figure 4) is recorded as “decreased the lymphoma cell viability in the presence”. In the test with U2932 DLBCL cell line (U2932 cells, cyclohexanone 25µM, absence of OR13A1 (sh1), Figure 4), the “effect on growth of DLBCL cells” value was “The absence of OR13A1 abrogates the effect”. In the test with U2932 DLBCL cell line (U2932 cells, cyclohexanone 25µM, Figure 4), the “growth of DLBCL cells” value was “reduces the growth of DLBCL cells”. Further, the “ligand of Olfr211” value at Olfr211 is “ligand”. Besides, in the test on Olfr1484, the “ligand of Olfr1484” value was “ligand”.
